In assay [1] the target is T1, CDK2-Cyclin A (Homo sapiens, UniProt P24941).
T1 construct: purchased ProQinase
As to the kind of experiment: FRET-based LANCE Ultra in vitro enzymatic kinase assay, CDK2. Format: biochemical. The protocol:
(§1) IC50 values for CDK inhibitors were determined using the fluorescence resonance energy transfer (FRET)-based LANCE Ultra KinaSelect Ser/Thr kit (Perkin Elmer). Kinase activity and inhibition were measured according to the manufacturer’s instructions and as previously described. […] FRET signals were recorded in a time-resolved manner in a Perkin Elmer EnVision reader. Purified cyclin-kinase pairs were obtained from the following suppliers: Carna Biosciences (CDK1-Cyclin B1, CDK6-Cyclin D3, CDK7-Cyclin H-MAT1), ProQinase (CDK2-Cyclin A) and Invitrogen (CDK9-Cyclin T1).
(§2) Data were analyzed with GraphPad Prism 7 software. Differences were assessed by unpaired or paired Student t tests if not indicated otherwise. Two-sided probabilities of less than 0.05 were considered significant. Nonlinear regression sigmoidal dose-response curve fit was used to determine the IC50 values and to generate graphs.

Assay [2] has as its target CDK4 (Homo sapiens, UniProt P11802). The assay can be described thus: FRET-based LANCE Ultra in vitro enzymatic kinase assay, CDK4. Format: biochemical. The protocol: as §1, §2
Assay [3] deals with non-malignant normal donor B cells. As to the kind of experiment: Normal donor B cell viability (Annexin V/DAPI, absolute counts). Format: cell-based. To be noted: Homo sapiens, read-out: IC50, viable non-malignant B cells. The protocol:
The MEC-1 cell line was obtained from the DSMZ (Braunschweig, Germany) and was cultured in RPMI (10% fetal bovine serum). A LDC526 stock solution was prepared with DMSO, diluted and added to the cultures to reach the specified concentrations. Samples (percentage of CD19+CD5+ CLL cells >90%) of n=37 CLL patients (Table 1) and n=6 healthy normal donor controls were used for experiments after obtaining informed consent according to institutional guidelines, approved by the Ethics Commission of the University of Essen-Duisburg. Peripheral blood mononuclear cells (PBMC) were isolated using Lymphoprep ([…] Technologies, Cologne, Germany) density gradient centrifugation and were used directly for NSG transplantation or in vitro experiments. Untouched normal donor B cells were isolated with a B cell isolation kit (Miltenyi, Bergisch Gladbach, Germany) according to the manufacturer’s instructions. […]
Apoptosis and cell death were determined by using Annexin V (BD Biosciences, Heidelberg, Germany) and 4′,6-Diamidin-2-phenylindol (DAPI, Sigma-Aldrich) staining. […] Flow cytometric data were analyzed with BD FACSDiva or FlowJo software (FLOWJO, LLC, Ashland, OR, USA). […]
Data were analyzed with GraphPad Prism 7 software. Differences were assessed by unpaired or paired Student t tests if not indicated otherwise. […]

Read-outs that look alike come from different tables or passages of the source.

The text below walks through data of article PMC5995184, “Potent anti-leukemic activity of a specific cyclin-dependent kinase 9 inhibitor in mouse models of chronic lymphocytic leukemia” (Oncotarget, 2018).

Chain of CDK4 (P11802 whole entry): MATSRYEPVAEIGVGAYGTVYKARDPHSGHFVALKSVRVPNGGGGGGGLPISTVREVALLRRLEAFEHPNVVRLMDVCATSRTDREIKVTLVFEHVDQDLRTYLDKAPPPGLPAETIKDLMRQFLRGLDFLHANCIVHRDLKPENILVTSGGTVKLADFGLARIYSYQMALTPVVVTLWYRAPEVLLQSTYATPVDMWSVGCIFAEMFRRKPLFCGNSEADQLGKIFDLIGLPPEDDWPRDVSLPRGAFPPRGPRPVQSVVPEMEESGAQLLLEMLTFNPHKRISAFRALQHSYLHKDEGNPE
Chain of CDK4 (P24385 whole entry partner): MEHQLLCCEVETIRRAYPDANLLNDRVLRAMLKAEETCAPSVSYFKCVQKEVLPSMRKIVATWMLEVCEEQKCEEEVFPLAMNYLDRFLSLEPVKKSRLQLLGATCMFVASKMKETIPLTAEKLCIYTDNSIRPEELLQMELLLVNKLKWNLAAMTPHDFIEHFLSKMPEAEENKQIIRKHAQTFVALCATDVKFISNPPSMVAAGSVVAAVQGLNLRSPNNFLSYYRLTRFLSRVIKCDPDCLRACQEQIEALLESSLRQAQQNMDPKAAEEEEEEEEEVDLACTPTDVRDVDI

Regarding `COc1cc(F)ccc1-c1ncnc(Nc2cccc(CS(N)(=O)=O)c2)n1` [LDC526, (3-((4-(4-fluoro-2-methoxyphenyl)-1,3,5-triazin-2-yl)amino)phenyl)methane-sulfonamide], the “selectivity versus CDK9 compared to CDK2” value in assay [1] stood at 52 fold. In addition, the “selectivity versus CDK9 compared to CDK4” value in assay [2] amounted to 291 fold. Moreover, the figures for the IC50 in assay [3] (24 hours incubation) and in assay [3] (48 hours incubation) were 0.9 µM and 1.48 µM, respectively.
